In data set [1] the test system is wild-type mice on a high fat diet. The settings on record: mouse, in vivo.
Description: (§4) With respect to animals, the procedures and protocols conform to the National Institutes of Health Guide for the Care and Use of Laboratory Animals, and were approved by the Institutional Animal Care and Use Committee of the University of Mississippi Medical Center. Tests were performed on 16 week old male PPARα knockout and wild-type mice on a C57 genetic background purchased from Jackson Labs (Bar Harbor, Me.). […] After this time, mice were switched to a 60% high fat diet (diet # D12492, Research Diets, Inc., New Brunswick, N.J.) for an additional 6 weeks. […] Control mice were not treated. Mice were euthanized on the last day of the test, at which time all organs were collected and weighed.
(§5) Following an 8 hour fast, a blood sample was obtained via orbital sinus under isoflorane anesthesia.
(§6) Plasma samples from individual mice were measured in duplicate and then averaged. The concentrations are expressed as mg/dL Plasma alanine aminotransferase (ALT) and aspartate aminotransferase (AST) levels were determined in 50 μL of plasma by colorimetric assay (Cobas, Rochce Diagnostics, Indianapolis, Ind.). Assays were performed according to the manufacturer's guidelines and samples were read on a Roche Cobas c501 analyzer. The concentrations were expressed as units/L.
Data set [2] relates to PPARα KO mice on a high fat diet. The settings on record: mouse, in vivo.
Description: as §4, §5, §6
Data set [3] is classed as physicochemical. An excerpt:
(§1) This was to help increase the solubility of bilirubin in solution. […] Bilirubin was purchased commercially from Frontier Scientific.

The test system of data set [4] is PPARα KO mice on a high fat diet. Description: High fat diet PPARα KO mice treated for seven days. The settings on record: bilirubin 30 mg/kg or fenofibrate 90 mg/kg i.p.
Description: as §4, §5, §6
Data set [5] in a line: Stability on heating during resin preparation. In kind it is physicochemical. The settings on record: 75° C. for 90 min in DMF/H2O; judged by decrease in PPARα binding of resin.
Description: as §1

Data set [6] relates to 3T3-L1 cells. Description: Adipogenesis assay (Nile Red lipid accumulation, Real-time PCR). In kind it is cell-based, mouse.
Description: Total RNA was read on a NanoDrop 2000® spectrophotometer (Thermo Fisher Scientific, Wilmington, Del.), and cDNA was synthesized using High Capacity cDNA Reverse Transcription Kit (Applied Biosystems). PCR amplification of the cDNA was performed by quantitative real-time PCR using TrueAmp® SYBR Green qPCR SuperMix (Advance Bioscience). The thermocycling protocol consisted of 10 min at 95° C., 40 cycles of 15 sec at 95° C., 30 sec at 60° C., and 20 sec at 72° C., and finished with a melting curve ranging from 60-95° C. to allow distinction of specific products. Normalization was performed in separate reactions with primers to GAPDH.
Adipogenic differentiation of 3T3-L1 cells was achieved by treatment with 1 μM Dex, 830 nM insulin, and 100 μM isobutylmethylxanthine in 10% FBS until Day 9. Upon differentiation, cells were stained with Nile Red to visualize lipid content, and densitometry was used as a direct measure. Total RNA extracted from Nile Red stained cells was used for real time PCR analysis.
The subject of data set [7] is hepa1c1c7 mouse hepatocytes overexpressing PPARα. Description: PPARα controlled genes in hepa1c1c7 liver cells (Real-time PCR). Format: cell-based. Particulars: 50 μM, 24 hours, dialyzed fatty acid-free media. Here is the method:
(§2) (FIG. 4D.) RNA was extracted and mRNA expression was measured by Real-time PCR.
(§3) To establish a 3T3-L1 or Hepa1c1c7 cell line that have PPARα stably overexpressed, mouse PPARα cDNA was ligated into the NotI/BamHI sites of the pQXCIP vector and transformed in DH5α cells (Invitrogen, Carlsbad, Calif.). […] The supernatants were harvested, and the cell debris was removed by centrifugation at 2000×g. The supernatant was used to infect 3T3-L1 or Hepa1c1c7 cells after addition of polybrene ([…], Sigma Chemical Co., St. Louis, Mo.) to establish cell lines with stable overexpression of a PPARα overexpressing (3T3-PPARα) or expressing empty vector (3T3-Vector). After 72 h the cells were selected with puromycin, and positive cells were confirmed by Western blotting and used for experiments.
A general note: In qPCR the cycle at which signal appears reflects the starting amount.

Data set [8] deals with PPARα OE 3T3-L1 cells. As to the kind of experiment: Endogenous PPARα gene regulatory activity in 3T3-L1 cells (Real-time PCR). In kind it is cell-based, mouse. Particulars: 50 μM, 24 hours, dialyzed fatty acid-free media. Here is the method:
as §2, §3

The target of data set [9] is T1, PPARα (Mus musculus, UniProt P23204).
T1 sequence (P23204 1-468): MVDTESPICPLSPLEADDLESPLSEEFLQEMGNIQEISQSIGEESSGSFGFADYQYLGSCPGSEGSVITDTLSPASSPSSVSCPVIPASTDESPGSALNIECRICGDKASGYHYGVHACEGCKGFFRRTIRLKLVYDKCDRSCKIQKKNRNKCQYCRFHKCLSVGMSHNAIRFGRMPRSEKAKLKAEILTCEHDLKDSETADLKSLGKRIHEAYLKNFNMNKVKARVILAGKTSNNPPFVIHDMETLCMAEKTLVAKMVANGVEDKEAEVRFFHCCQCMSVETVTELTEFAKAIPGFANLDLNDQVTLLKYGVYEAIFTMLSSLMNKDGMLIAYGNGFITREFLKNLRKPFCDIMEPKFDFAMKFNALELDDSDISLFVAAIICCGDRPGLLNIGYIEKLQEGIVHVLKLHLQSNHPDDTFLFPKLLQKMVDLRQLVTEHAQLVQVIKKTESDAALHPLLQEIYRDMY
Description: Promoter reporter assay (PPRE-3tk-luc luciferase) in Cos7 cells. The settings on record: for level of PPARα activation compared among the ligands / PPARα activity at the minimal luciferase promoter: PPARα overexpressed, 50 μM each; for level of PPARα activation compared among the ligands: 24 hours (FIG. 3C); for PPARα activity at the minimal luciferase promoter: vs Veh (FIG. 3C).
Description: Cos7 cells were transiently transfected with a minimal PPARα responsive promoter luciferase construct (PPRE-3tk-luc) for 24 hours along with an empty vector and a vector containing PPARα cDNA (overexpression).
The mouse 3T3-L1 preadipocyte, Hepa1c1c7, and Cos7 green kidney monkey cells were routinely cultured and maintained in Dulbecco's Modified Eagles's Medium (DMEM) containing 10% bovine calf serum or FBS with 1% penicillin-streptomycin.
A PPARα minimal promoter PPRE-3tk-luc activity was measured by luciferase, and pRL-CMV Renilla reporter for normalization to transfection efficiency. Transient transfection was achieved using GeneFect® (Alkali Scientific, Inc.). Twenty-four-hour post-transfected cells were lysed and the luciferase assay was performed using the Promega® dual luciferase assay system (Promega, Madison, Wis.).

Data set [10] has as its target T1, PPARα. As to the kind of experiment: Pull-down assay with ligand-coupled sepharose resins, PPARα OE 3T3-L1 cells. Format: binding. Further details: expressed in transfected cells. Particulars: ligand coupled to sepharose beads. Here is the method: The ligand coupling was performed according to the GE Healthcare instructions (71-7097-00 AE, pg. 6) for EAH Sepharose™ 4B. The procedure in the online instructions was titled “A general ligand coupling procedure”. […] Resin coupling procedures were conducted in a DMF/H2O solvent system (1:1) with a final concentration of 0.1 M EDC*HCl. […] Upon completion, resins were washed according to the GE instructions (3 alternating washings with 0.5 M NaCl containing 0.1 M sodium acetate pH 4.5 and 0.5 M NaCl containing 0.1 M Tris pH 8) over a 10-15 μm fritted filter. As an additional step to the GE instructions, matrix-coupled bilirubin and biliverdin coupled preparations were further washed with 50% DMSO/H2O solutions (250 mL) to remove any unreacted ligand. The filtrate was nearly colorless after this step. […] The resins were suspended in 20% EtOH/H2O (15 mL) and stored at 4° C. for 16 h in capped sample vials. The ligand-coupled resin settles overnight and the supernatant was carefully decanted until minimal amounts of 20% EtOH/H2O covered the resin. […]
Whole cell extracts (WCE) were prepared by freezing the cell pellet overnight at −80° C. […] Immunoreactivity was visualized and quantified by infrared scanning in the Odyssey system (LI-COR Biosciences). […]

Setting [11] is: 10 μM, differentiated 3T3-L1 adipocytes.

SMILES strings stand for the structures.

In the case of `C=CC1=C(C)/C(=C/c2[nH]c(Cc3[nH]c(/C=C4\NC(=O)C(C)=C4C=C)c(C)c3CCC(=O)O)c(CCC(=O)O)c2C)NC1=O` [bilirubin], in data set [1], the “alanine aminotransferase (ALT)” value is on record as “no change” and the “aspartate aminotransferase (AST)” value was “no change”. Moreover, in [2], the “alanine aminotransferase (ALT)” value is on record as “significantly (p<0.05) decreased” and the “aspartate aminotransferase (AST)” value is recorded as “significantly (p<0.05) decreased”. Besides, the “solubility in organic solvents” value in data set [3] is listed as “limited solubility”. Further, in data set [4], the body weight entry was “no effect”. Also, the stability with heating entry in data set [5] is “less stable with heating”.
For `C=CC1=C(C)/C(=C/C2=NC(=C\c3[nH]c(/C=C4\NC(=O)C(C)=C4C=C)c(C)c3CCC(=O)O)/C(CCC(=O)O)=C2C)NC1=O` [biliverdin], the “reduction of lipid accumulation” value in data set [6] (10 μM over the 9 day protocol) is 50%. Moreover, the “reduction of lipid accumulation” value in [6] (10 μM over the 9 day protocol, listed as Biliverdin) amounted to 49%. In addition, in [6] (setting [11]), the “expression of CPT1” value is listed as “significantly (p<0.001) increased expression of CPT1” and the “expression of FAS” value is listed as “significantly (p<0.001) decreased expression of FAS”. Further, the “reduction of lipid accumulation” value in [6] (50 μM over the 9 day protocol) worked out at 91%. Also, in data set [7], the “CD36 mRNA” value was “not”, the “CYP4A10 mRNA” value is recorded as “not”, the “FGF21 mRNA response” value was “increased” and the “Pyruvate dehydrogenase kinase 4 (PDK4) expression” value is “increased with all the ligands”. In data set [7], the “angiopoietin-like 4 (ANGPTL4) expression” value was “significantly increased” and the “heme oxygenase-1 (HO-1) mRNA response” value is reported as “increased”. Further, in data set [3], the “solubility in organic solvents” value was “readily soluble” and the water solubility result is listed as “greater water solubility than bilirubin”. Besides, in [8], the “CD36 mRNA expression” value is “significantly (p<0.05) increased CD36 mRNA expression more than fenofibrate”; the CPT1 expression result was “increased CPT1 and FGF21 expression more than WY 14,643 treatment”; the “FGF21 mRNA expression” value is “significantly (p<0.05) enhanced FGF21 mRNA higher than fenofibrate”. Moreover, in data set [9] (Cos7 cells), the “level of PPARα activation compared among the ligands” value is recorded as “same level of PPARα activation”. Also, the “PPARα activity at the minimal luciferase promoter” value in data set [9] (Cos7 cells, 24 hours) is on record as “significantly (p<0.0001) increased”. In addition, the “PPARα activity (PPRE-3tk-luc)” value in [9] (Cos7 cells, PPARα overexpression, dose dependence, 24 hours, vs 0 μM) was “significantly (p<0.05) increased”. Also, the “PPRE-3tk-luc promoter activation in the absence of PPARα” value in data set [9] (Cos7 cells, empty vector, dose dependence, 24 hours) is “did not activate”.
In the case of `Cc1cccc(Nc2cc(Cl)nc(SCC(=O)O)n2)c1C` [WY 14,643], in data set [6] (10 μM over the 9 day protocol), the “reduction of lipid accumulation” value is 56%. Moreover, the “expression of FAS” value in data set [6] (setting [11]) is listed as “significantly (p<0.001) decreased expression of FAS”. The “reduction of lipid accumulation” value in [6] (50 μM over the 9 day protocol) is listed as 33%. Further, the “direct binding to PPARα (pull-down)” value in data set [10] is on record as “can directly bind”. In data set [7], the “CD36 mRNA” value is “responded”, the “CYP4A10 mRNA” value is given as “responded”, the “FGF21 mRNA response” value is listed as “not” and the “Pyruvate dehydrogenase kinase 4 (PDK4) expression” value is “significantly (p<0.05) higher”. In [7], the “angiopoietin-like 4 (ANGPTL4) expression” value is reported as “significantly increased” and the “heme oxygenase-1 (HO-1) mRNA response” value is reported as “not”. For the same compound, the “solubility in organic solvents” value in [3] is reported as “readily soluble”. For the same compound, the “CD36 mRNA expression” value in data set [8] was “strongly induced expression”. The “induction of PPARα activity” value in data set [9] (Cos7 cells transfected with PPARα and RXR, 50 μM, 24 hrs (FIG. 12)) was 2.1 fold. In addition, the “level of PPARα activation compared among the ligands” value in data set [9] (Cos7 cells) was “higher than biliverdin or fenofibrate”. Besides, the “PPARα activity at the minimal luciferase promoter” value in data set [9] (Cos7 cells, 24 hours) was “significantly (p<0.0001) increased”.
With `CC(C)OC(=O)C(C)(C)Oc1ccc(C(=O)c2ccc(Cl)cc2)cc1` [fenofibrate], the “reduction of lipid accumulation” value in data set [6] (10 μM over the 9 day protocol) was 48%; in data set [6] (50 μM over the 9 day protocol) it was 51%.

The values are drawn from patent publication US10662153B2 (The University of Toledo, priority 2016, dated 2020).
